{
  "source": "paper PMC5624964",
  "about": "“ORP5 and ORP8 bind phosphatidylinositol-4, 5-biphosphate (PtdIns(4,5)P2) and regulate its level at the plasma membrane” (Nature Communications, 2017)",
  "assay_in_all_cases": "isothermal titration calorimetry",
  "type_in_all_cases": "binding",
  "key": {"[1]": {"molecular_target": "T1, ORP8 ORD (Homo sapiens, UniProt Q9BZF1)", "T1 construct": "gene OSBPL8; ORD domain 400-778 of ORP8L, His6-ubiquitin tag removed by DUB without extra N-terminal residues, E. coli", "T1 sequence (Q9BZF1 400-778)": "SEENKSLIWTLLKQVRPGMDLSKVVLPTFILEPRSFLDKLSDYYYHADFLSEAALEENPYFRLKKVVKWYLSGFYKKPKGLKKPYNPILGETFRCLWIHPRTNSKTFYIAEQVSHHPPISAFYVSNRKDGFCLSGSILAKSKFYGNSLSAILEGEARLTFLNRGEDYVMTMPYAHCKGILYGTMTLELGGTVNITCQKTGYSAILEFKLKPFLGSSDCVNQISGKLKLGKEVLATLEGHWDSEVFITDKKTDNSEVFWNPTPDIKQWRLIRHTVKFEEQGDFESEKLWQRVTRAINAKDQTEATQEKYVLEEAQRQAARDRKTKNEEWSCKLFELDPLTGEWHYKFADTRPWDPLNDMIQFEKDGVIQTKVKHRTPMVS", "source_text": "isothermal titration calorimetry on ORP8 ORD"}, "[2]": {"molecular_target": "T2, ORP5 ORD (Homo sapiens, UniProt Q9H0X9)", "T2 construct": "gene OSBPL5; ORD domain 364-746 of ORP5A, His6-ubiquitin tag removed by DUB without extra N-terminal residues, E. coli", "T2 sequence (Q9H0X9 364-746)": "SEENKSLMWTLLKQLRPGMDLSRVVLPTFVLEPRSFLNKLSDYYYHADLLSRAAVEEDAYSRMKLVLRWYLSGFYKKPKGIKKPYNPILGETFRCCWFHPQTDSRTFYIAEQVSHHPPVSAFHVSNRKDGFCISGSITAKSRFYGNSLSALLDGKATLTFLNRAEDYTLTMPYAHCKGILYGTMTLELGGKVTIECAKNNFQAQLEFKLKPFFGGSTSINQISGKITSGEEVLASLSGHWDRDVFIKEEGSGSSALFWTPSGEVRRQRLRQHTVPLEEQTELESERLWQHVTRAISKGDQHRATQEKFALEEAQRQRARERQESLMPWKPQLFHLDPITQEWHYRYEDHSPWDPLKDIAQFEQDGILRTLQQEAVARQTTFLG", "source_text": "isothermal titration calorimetry on ORP5 ORD"}, "[3]": {"molecular_target": "T3, ORP8 PH (Homo sapiens, UniProt Q9BZF1)", "T3 construct": "gene OSBPL8; PH domain 149-265 of ORP8L, synthetic gene, N-terminal MGSSGSSG and C-terminal RSGPSSGLEEF linkers, GST tag cleaved by thrombin, E. coli", "T3 sequence (Q9BZF1 149-265)": "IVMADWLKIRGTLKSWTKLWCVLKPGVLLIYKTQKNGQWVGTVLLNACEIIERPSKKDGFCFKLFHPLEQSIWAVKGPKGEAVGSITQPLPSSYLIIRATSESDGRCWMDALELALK", "source_text": "isothermal titration calorimetry on ORP8 PH"}, "[4]": {"molecular_target": "T4, ORP5 PH (Homo sapiens, UniProt Q9H0X9)", "T4 construct": "gene OSBPL5; PH domain 127-243 of ORP5A, synthetic gene, N-terminal MGSSGSSG and C-terminal RSGPSSGLEEF linkers, GST tag cleaved by thrombin, E. coli", "T4 sequence (Q9H0X9 127-243)": "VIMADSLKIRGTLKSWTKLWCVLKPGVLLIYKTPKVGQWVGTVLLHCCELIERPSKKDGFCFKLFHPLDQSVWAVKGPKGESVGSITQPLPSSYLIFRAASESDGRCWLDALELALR", "source_text": "isothermal titration calorimetry on ORP5 PH"}, "[5]": {"details": "water-soluble diC8 lipid, 25 °C, 50 mM Tris pH 8.0, 100 mM NaCl"}},
  "note": "Like-named read-outs stand apart in the source and are kept apart here.",
  "data": [
    {"smiles": "CCCCCCCC(=O)OC[C@H](COP(=O)(O)O[C@H]1[C@H](O)[C@@H](OP(=O)(O)O)[C@H](O)[C@@H](O)[C@H]1O)OC(=O)CCCCCCC", "note": "[PtdIns(5)P]", "values": [
      {"measurement": "Kd", "setting": "[1]", "value": "5.9 ± 4.1", "unit": "µM"}
    ]},
    {"smiles": "CCCCCCCC(=O)OC[C@H](COP(=O)(O)O[C@H]1[C@H](O)[C@@H](O)[C@H](OP(=O)(O)O)[C@@H](O)[C@H]1O)OC(=O)CCCCCCC", "note": "[PtdIns(4)P]", "values": [
      {"measurement": "Kd", "setting": "[1]; [5]", "value": "2.3 ± 0.3", "unit": "µM"},
      {"measurement": "Kd", "setting": "[2]; [5]", "value": "6.7 ± 3.3", "unit": "µM"}
    ]},
    {"smiles": "CCCCCCCC(=O)OC[C@H](COP(=O)(O)O[C@@H]1[C@H](O)[C@H](O)[C@@H](OP(=O)(O)O)[C@H](OP(=O)(O)O)[C@H]1O)OC(=O)CCCCCCC", "note": "[PtdIns(4,5)P2]", "values": [
      {"measurement": "Kd", "setting": "[3]", "value": "5.5 ± 1.2", "unit": "µM"},
      {"measurement": "Kd", "setting": "[4]", "value": "7.3 ± 0.5", "unit": "µM"},
      {"measurement": "Kd", "setting": "[1]", "value": "5.3 ± 0.4", "unit": "µM"},
      {"measurement": "Kd", "setting": "[2]", "value": "6.7 ± 1.5", "unit": "µM"}
    ]},
    {"smiles": "CCCCCCCC(=O)OC[C@H](COP(=O)(O)O[C@H]1[C@H](O)[C@@H](OP(=O)(O)O)[C@H](OP(=O)(O)O)[C@@H](OP(=O)(O)O)[C@H]1O)OC(=O)CCCCCCC", "note": "[PtdIns(3,4,5)P3]", "values": [
      {"measurement": "Kd", "setting": "[3]", "value": "11.8 ± 3.2", "unit": "µM"},
      {"measurement": "Kd", "setting": "[4]; [5]", "value": "5.3 ± 2.4", "unit": "µM"},
      {"measurement": "Kd", "setting": "[2]; [5]", "value": "1.1 ± 0.3", "unit": "µM"}
    ]},
    {"smiles": "CCCCCCCC(=O)OC[C@H](COP(=O)(O)O[C@H]1[C@H](O)[C@@H](O)[C@H](OP(=O)(O)O)[C@@H](OP(=O)(O)O)[C@H]1O)OC(=O)CCCCCCC", "note": "[PtdIns(3,4)P2]", "values": [
      {"measurement": "Kd", "setting": "[3]", "value": "2.9 ± 0.1", "unit": "µM"},
      {"measurement": "Kd", "setting": "[4]; [5]", "value": "16.3 ± 0.4", "unit": "µM"},
      {"measurement": "Kd", "setting": "[1]", "value": "2.5 ± 0.6", "unit": "µM"},
      {"measurement": "Kd", "setting": "[2]; [5]", "value": "0.8 ± 0.8", "unit": "µM"}
    ]},
    {"smiles": "CCCCCCCC(=O)OC[C@H](COP(=O)(O)O[C@@H]1[C@H](O)[C@H](OP(=O)(O)O)[C@@H](O)[C@H](O)[C@H]1O)OC(=O)CCCCCCC", "note": "[PtdIns(3)P]", "values": [
      {"measurement": "Kd", "setting": "[1]", "value": "1.7 ± 0.8", "unit": "µM"},
      {"measurement": "Kd", "setting": "[2]", "value": "9 ± 2.7", "unit": "µM"}
    ]}
  ]
}
